Results reported in patent US6534659B2, “Sufidomaidocarboxylic acids, method for production thereof, and use therefor” (Nippon Shokubai Co., Ltd., priority 2000, dated 2003).

Assays:
[1] = Ability to inhibit corrosion by polarization resistance (Rp), iron electrodes; set-up: ability to inhibit corrosion: concentration or dose not given beside the values; settings: for Rp / ability to inhibit corrosion: iron electrode, sodium salt; for Ability to inhibit corrosion After 20 min. / Ability to inhibit corrosion After 15 hrs / Ability to inhibit corrosion Peak: Electrode Fe
[2] = Ability to inhibit corrosion by polarization resistance (Rp), low-carbon steel electrodes (X65); settings: Electrode X65

With `CC1(C)SCCN1C(=O)C1CCCCC1C(=O)O` (stereo not drawn) [Example 4, N-(2-carboxylcyclohexylcarbonyl)-2,2-dimethylthiazolidine] the Rp ([1]; after the elapse of 20 minutes) was 640 Ω, the “ability to inhibit corrosion” value ([1]; after the elapse of 20 minutes) was 95.9% and the Rp ([1]; after the elapse of 15 hours) was 5300 Ω. The “ability to inhibit corrosion” value ([1]; after the elapse of 15 hours) was 98.3%, the Rp ([1]; peak) was “about 7450 Ω” and the “ability to inhibit corrosion” value ([1]; peak) was 98.8%.
With `CC1(C)SCCN1C(=O)CCC(=O)O` [Example 3, N-(2-carboxylethylcarbonyl)-2,2-dimethylthiazolidine] the “Ability to inhibit corrosion After 20 min.” value [1] was 71.4%, the “Ability to inhibit corrosion After 15 hrs” value [1] was 97.8% and the “Ability to inhibit corrosion Peak” value [1] was 98.1%. The “ability to inhibit corrosion” value ([1]; after the elapse of 25 minutes) was 71.4%, the “ability to inhibit corrosion” value ([1]; after the elapse of 15 hours) was 97.8% and the “ability to inhibit corrosion” value ([1]; peak) was 98.1%.
With `CC1(C)SCCN1C(=O)c1ccccc1C(=O)O` [Example 1, N-(2-carboxybenzoyl)-2,2-dimethylthiazolidine] the “Ability to inhibit corrosion After 20 min.” value [2] was 71.0%, the “Ability to inhibit corrosion After 15 hrs” value [2] was 94.7% and the “Ability to inhibit corrosion Peak” value [2] was 97.2%. For the same compound, the “Ability to inhibit corrosion After 20 min.” value [1] was 48%, the “Ability to inhibit corrosion After 15 hrs” value [1] was 96.3% and the “Ability to inhibit corrosion Peak” value [1] was 98.5%. For the same compound, the “ability to inhibit corrosion” value ([1]; after the elapse of 20 minutes) was 47.6%, the “ability to inhibit corrosion” value ([1]; after the elapse of 15 hours) was 96.3% and the “ability to inhibit corrosion” value ([1]; peak) was 98.5%.
With `CC1(C)SCCN1C(=O)C=CC(=O)O` [Example 2, N-(2-carboxylvinylcarbonyl)-2,2-dimethylthiazolidine] the Rp ([1]; after the elapse of 20 minutes) was 200 Ω, the “ability to inhibit corrosion” value ([1]; after the elapse of 20 minutes) was 55.0% and the Rp ([1]; after the elapse of 15 hours) was 2000 Ω. For the same compound, the “ability to inhibit corrosion” value ([1]; after the elapse of 15 hours) was 95.5%, the Rp ([1]; peak) was “about 4800 Ω” and the “ability to inhibit corrosion” value ([1]; peak) was 98.1%.
